#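 Tested at 5 concentrations; 48 h exposure; 96-well plates; endpoints linearly interpolated, else capped at highest concentration. TGI is the concentration that stops growth completely.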
# Legend:
# Assay in all cases: DTP human tumour cell line panel, 48 h
# [1] = tested on: CCRF-CEM leukemia
# [2] = tested on: EKVX NSCLC
# [3] = tested on: TK-10 renal
# [4] = tested on: OVCAR-4 ovarian
# [5] = tested on: SNB-19 CNS
# [6] = tested on: ACHN renal
# [7] = tested on: CAKI-1 renal
# [8] = tested on: NCI-H226 lung
# [9] = tested on: MDA-MB-231 breast
# [10] = tested on: MOLT-4 leukemia
# [11] = tested on: HCT-116 colon
# [12] = tested on: HCT-15 colon
# [13] = tested on: SR leukemia
# [14] = tested on: 786-0 renal
# [15] = tested on: LOX IMVI melanoma
# [16] = tested on: RXF 393 renal
Structure (SMILES),TGI [1],TGI [2],TGI [3],TGI [4],TGI [5],TGI [6],TGI [7],TGI [8],TGI [9],TGI [10],TGI [11],TGI [12],TGI [13],TGI [14],TGI [15],TGI [16]
COc1ccc(/C=C/C(=O)c2ccc(OC(=O)/C=C/c3ccccc3)cc2)cc1,21.5 µM,> 92.2 µM,> 100 µM,92.8 µM,> 63.4 µM,> 100 µM,> 69.2 µM,> 100 µM,> 87.2 µM,50.6 µM,40.4 µM,> 100 µM,16.9 µM,52.8 µM,> 100 µM,> 100 µM
O=C1C=CC2(C=C1)C[C@H](NC(=O)OCc1ccccc1)C(=O)O2,10 µM,23.7 µM,32.4 µM,39.6 µM,> 100 µM,29.5 µM,34.8 µM,> 86.7 µM,32.6 µM,15.3 µM,40.3 µM,27 µM,4.33 µM,27.6 µM,31.8 µM,24.9 µM
COC1CC(O[C@H]2CC[C@@]3(C)[C@@H](CC[C@]4(O)[C@@H]3CC[C@]3(C)[C@@H](C(C)=O)[C@H](OC(=O)CC(C)C)[C@@H](OC(=O)c5ccccc5)[C@@]34O)C2)OC(C)C1OC1CC(OC)C(OC2OC(C)C(O)C(OC)C2O)C(C)O1 (stereo partly specified),> 25 µM,> 25 µM,> 25 µM,> 25 µM,> 25 µM,> 25 µM,> 25 µM,> 25 µM,> 25 µM,22.4 µM,> 25 µM,> 25 µM,> 25 µM,> 25 µM,> 25 µM,> 25 µM
N#Cc1ccc(C2NN=CC23C(=O)c2ccccc2OC3c2ccccc2)cc1 (stereo unspecified),> 100 µM,84.8 µM,96.3 µM,> 100 µM,> 100 µM,> 100 µM,> 100 µM,> 100 µM,> 100 µM,> 100 µM,69 µM,> 100 µM,> 100 µM,> 100 µM,> 100 µM,> 100 µM
Cc1cccc2c1c(=O)c1c(O)cc(O)cc1n2C,> 100 µM,> 100 µM,> 100 µM,> 100 µM,> 100 µM,> 100 µM,> 100 µM,> 100 µM,> 100 µM,> 100 µM,> 100 µM,> 100 µM,> 100 µM,> 100 µM,> 100 µM,> 100 µM
CC(=O)/C(C=Nc1c(C)n(C)n(C)c1=O)=C(/O)c1ccccc1,> 50 µM,> 50 µM,> 50 µM,> 50 µM,> 50 µM,> 50 µM,> 50 µM,> 50 µM,> 50 µM,> 50 µM,> 50 µM,> 50 µM,> 50 µM,> 50 µM,> 50 µM,> 50 µM

# From PubChem BioAssay (NCI)
